Assay [1] can be described thus: cells. The assay is classed as functional, cell-based.
In assay [2] the target is T1, Nuclear receptor subfamily 0 group B member 1 (Homo sapiens, UniProt P51843).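 Also: HEK293T cells transfected with SF-1 and DAX-1 plus StAR promoter luciferase reporter.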
T1 sequence (P51843 whole entry): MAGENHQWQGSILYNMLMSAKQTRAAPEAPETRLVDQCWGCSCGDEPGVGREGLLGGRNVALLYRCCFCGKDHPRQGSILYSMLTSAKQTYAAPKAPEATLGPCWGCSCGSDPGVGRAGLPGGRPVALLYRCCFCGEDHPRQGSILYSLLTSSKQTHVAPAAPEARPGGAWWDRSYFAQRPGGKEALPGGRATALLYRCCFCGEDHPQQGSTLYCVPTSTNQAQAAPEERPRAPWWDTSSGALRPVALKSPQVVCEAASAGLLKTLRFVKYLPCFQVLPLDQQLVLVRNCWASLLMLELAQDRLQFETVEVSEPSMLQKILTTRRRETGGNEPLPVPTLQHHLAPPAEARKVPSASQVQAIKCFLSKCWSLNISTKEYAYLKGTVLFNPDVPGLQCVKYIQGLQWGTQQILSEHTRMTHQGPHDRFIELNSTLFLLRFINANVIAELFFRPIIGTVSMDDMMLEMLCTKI
It counts as functional, cell-based.

A short description of assay [3]: COV434 cell viability loss – plate reader, dry powder, SA7, cytotoxicity control for PAX8 inhibitor project, dose response (AID 743145). The assay is classed as functional, cell-based.
A short description of assay [4]: PAX8-dependent cell viability loss – plate reader, dry powder, dose response (AID 743049). It counts as functional, cell-based.
The nature of assay [5]: PAX5 cellular inhibition readout – cell-based, plate reader, dry powder samples, selectivity assay for PAX8 inhibitor project, dose response (AID 743047).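 Also: HEK293 cells carrying a Pax5 driven CD19 promoter luciferase reporter; potency of inhibitors that lower reporter luminescence.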 It counts as functional.
The nature of assay [6]: inhibitors acting on PAX2 in cells – cell-based, plate reader, dry powder samples, selectivity assay for PAX8 inhibitor project, dose response (AID 743048).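 Also: HEK293 cells carrying a WT1 promoter luciferase reporter driven by expressed Pax2; potency is for inhibition of Pax2 driven reporter signal.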 It counts as functional.
Another assay has as its target Paired box protein Pax-8 (Homo sapiens, UniProt Q06710). In words: PAX8 transcriptional activity inhibition in RMG-I – RMG-I cells, luciferase, cherry-pick, dose response (AID 687027).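 Also: luciferase reporter driven by Pax8 target thyroperoxidase promoter measured by SteadyGlo luminescence.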 It counts as functional, cell-based.
Assay [7] is described as follows: viability loss in THP-1 monocytes – THP-1 cells, cytotoxicity control for Vif-APOBEC3G degradation inhibitor project, dose response (AID 1117359). It counts as functional. As to conditions: THP-1.
Another assay concerns H9c2. In words: cells. As to conditions: Rattus norvegicus, H9c2, Myocardium. It counts as functional, cell-based.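 Also: confirmatory concentration-response retest of ultra-high-throughput screening hits for modulation of myocardial damage; cell death induced by hydrogen peroxide oxidative stress; compound pretreatment for 60 min then peroxide exposure for 2 h; potency is for protecting the cells against peroxide damage rather than for killing them.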
A further assay has as its target T2, Protein skinhead-1 (Caenorhabditis elegans, UniProt P34707).
T2 sequence (P34707 whole entry): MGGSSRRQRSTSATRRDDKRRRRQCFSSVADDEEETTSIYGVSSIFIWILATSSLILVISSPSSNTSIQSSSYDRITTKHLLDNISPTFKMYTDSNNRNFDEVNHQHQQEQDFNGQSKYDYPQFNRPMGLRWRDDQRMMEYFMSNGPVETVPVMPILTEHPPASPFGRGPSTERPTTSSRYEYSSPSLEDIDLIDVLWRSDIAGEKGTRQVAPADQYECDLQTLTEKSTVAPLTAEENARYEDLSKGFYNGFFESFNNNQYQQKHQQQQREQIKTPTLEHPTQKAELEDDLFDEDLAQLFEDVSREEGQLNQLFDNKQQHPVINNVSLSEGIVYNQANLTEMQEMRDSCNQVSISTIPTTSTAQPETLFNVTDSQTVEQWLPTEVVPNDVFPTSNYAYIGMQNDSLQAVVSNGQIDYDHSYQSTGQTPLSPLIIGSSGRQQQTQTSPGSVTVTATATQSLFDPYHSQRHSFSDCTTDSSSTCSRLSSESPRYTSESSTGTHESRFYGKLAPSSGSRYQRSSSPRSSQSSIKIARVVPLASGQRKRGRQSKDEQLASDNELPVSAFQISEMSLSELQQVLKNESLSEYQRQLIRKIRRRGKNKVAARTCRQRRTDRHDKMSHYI
It counts as functional.

Assay [8] can be described thus: cells.
For assay [9], the target named is T3, Oxysterols receptor LXR-beta (Homo sapiens, UniProt P55055).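 Also: Cell-based luminescence dose-response assay of agonist activity at LXR, run as a confirmatory counterscreen to a daf-12 agonist screen; HEK293 cells with Gal4-LXR fusion and GAL4-driven luciferase reporter; agonist potency from rising luciferase signal of a Gal4-LXR reporter.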
T3 sequence (P55055 whole entry): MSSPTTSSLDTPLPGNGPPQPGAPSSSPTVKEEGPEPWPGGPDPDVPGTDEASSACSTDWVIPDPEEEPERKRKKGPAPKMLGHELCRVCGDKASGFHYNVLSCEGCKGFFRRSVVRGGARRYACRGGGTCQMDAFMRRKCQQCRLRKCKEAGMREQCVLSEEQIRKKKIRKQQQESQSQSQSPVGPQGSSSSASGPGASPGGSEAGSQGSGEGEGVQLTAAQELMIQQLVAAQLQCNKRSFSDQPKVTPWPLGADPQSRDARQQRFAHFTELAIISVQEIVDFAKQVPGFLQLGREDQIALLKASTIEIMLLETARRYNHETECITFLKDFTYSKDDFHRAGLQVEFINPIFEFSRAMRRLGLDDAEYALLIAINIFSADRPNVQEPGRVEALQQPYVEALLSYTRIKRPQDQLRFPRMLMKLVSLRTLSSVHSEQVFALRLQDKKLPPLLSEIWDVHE
It counts as functional, cell-based.

Assay [10] is described as follows: viability loss in HepG2 liver cells – cell-based, ATP luminescence, cherry-pick, set 6, cytotoxicity control, dose response (AID 1053125). The assay is classed as functional.
In another assay the target is T4, CAAX prenyl protease 2 (Saccharomyces cerevisiae S288c, UniProt Q03530).
T4 sequence (Q03530 whole entry): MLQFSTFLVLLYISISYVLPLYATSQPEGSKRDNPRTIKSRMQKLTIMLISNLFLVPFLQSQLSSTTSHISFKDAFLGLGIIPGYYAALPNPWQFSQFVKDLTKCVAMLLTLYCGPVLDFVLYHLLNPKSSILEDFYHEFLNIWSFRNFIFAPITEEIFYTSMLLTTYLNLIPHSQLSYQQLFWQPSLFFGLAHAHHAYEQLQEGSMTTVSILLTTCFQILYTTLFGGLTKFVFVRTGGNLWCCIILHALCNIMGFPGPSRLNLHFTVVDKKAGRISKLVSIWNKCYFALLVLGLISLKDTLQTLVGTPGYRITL
It counts as biochemical.

Another assay concerns the target Protein Tat (Human immunodeficiency virus type 1 group M subtype B (isolate HXB2)(HIV-1), UniProt P04608). The assay is classed as functional.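 Also: tat binding to TAR RNA read out by fluorescence polarization.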
Assay [11] addresses Disintegrin and metalloproteinase domain-containing protein 17 (Homo sapiens, UniProt P78536). In words: exosite inhibitors of ADAM17, dose response, biochemical (AID 743260).
Assay [12] is described as follows: inhibition of ADAM10 peptide cleavage – biochemical, FRET peptide substrate, recombinant human ADAM10, selectivity assay for ADAM17 exosite inhibitor project, dose response (AID 743259).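 Also: ADAM10 enzyme cleaving a FRET peptide substrate.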
The nature of assay [13]: blockers of bursicon-stimulated LGR2 cAMP reporter – cell-based, HEK293, CRE-luciferase reporter, cherry pick, set 2, dose response (AID 743343).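 Also: transfected cells were stimulated with diluted bursicon conditioned medium after compound addition.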 It counts as functional.
Assay [14] is described as follows: viability loss in HEK293 cells – cell-based, plate reader, cherry-picked samples, cytotoxicity control, dose response (AID 743446). It counts as functional.
Assay [15] can be described thus: blockade of melanocortin 4 receptor signaling – cell-based, plate reader, cherry pick, counter-screen for LGR2 antagonist project, dose response (AID 743444).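 Also: transfected HEK 293 cells stimulated with alpha-MSH peptide; potency of inhibitors of the alpha-MSH evoked signal.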 It counts as functional.
Assay [16] in a line: A549 cell cytotoxicity, dose response, cytotoxicity control, plate reader, cherry-pick, antagonist series (AID 743412). The assay is classed as functional, cell-based.

The text below walks through data of ChEMBL document CHEMBL1201862, “PubChem BioAssay data set” (2004).

Activity calls are given as the source filed them.

Protein Tat, sequence (P04608 whole entry, the tested form may be a part): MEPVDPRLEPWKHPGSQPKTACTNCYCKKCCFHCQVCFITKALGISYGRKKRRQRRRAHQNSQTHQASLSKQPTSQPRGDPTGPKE
Paired box protein Pax-8, sequence (Q06710 whole entry): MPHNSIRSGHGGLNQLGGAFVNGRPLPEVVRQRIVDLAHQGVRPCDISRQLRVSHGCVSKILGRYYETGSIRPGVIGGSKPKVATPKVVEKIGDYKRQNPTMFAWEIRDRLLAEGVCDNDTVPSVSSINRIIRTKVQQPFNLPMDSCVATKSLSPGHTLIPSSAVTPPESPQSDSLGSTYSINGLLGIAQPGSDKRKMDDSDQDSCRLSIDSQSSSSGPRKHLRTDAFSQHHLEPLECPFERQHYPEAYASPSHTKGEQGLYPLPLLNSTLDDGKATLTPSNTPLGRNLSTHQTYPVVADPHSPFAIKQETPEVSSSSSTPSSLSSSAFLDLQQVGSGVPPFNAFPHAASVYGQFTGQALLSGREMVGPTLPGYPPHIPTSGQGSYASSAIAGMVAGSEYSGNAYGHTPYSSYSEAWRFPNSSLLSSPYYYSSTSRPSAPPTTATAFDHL
Disintegrin and metalloproteinase domain-containing protein 17, sequence (P78536 whole entry, the tested form may be a part): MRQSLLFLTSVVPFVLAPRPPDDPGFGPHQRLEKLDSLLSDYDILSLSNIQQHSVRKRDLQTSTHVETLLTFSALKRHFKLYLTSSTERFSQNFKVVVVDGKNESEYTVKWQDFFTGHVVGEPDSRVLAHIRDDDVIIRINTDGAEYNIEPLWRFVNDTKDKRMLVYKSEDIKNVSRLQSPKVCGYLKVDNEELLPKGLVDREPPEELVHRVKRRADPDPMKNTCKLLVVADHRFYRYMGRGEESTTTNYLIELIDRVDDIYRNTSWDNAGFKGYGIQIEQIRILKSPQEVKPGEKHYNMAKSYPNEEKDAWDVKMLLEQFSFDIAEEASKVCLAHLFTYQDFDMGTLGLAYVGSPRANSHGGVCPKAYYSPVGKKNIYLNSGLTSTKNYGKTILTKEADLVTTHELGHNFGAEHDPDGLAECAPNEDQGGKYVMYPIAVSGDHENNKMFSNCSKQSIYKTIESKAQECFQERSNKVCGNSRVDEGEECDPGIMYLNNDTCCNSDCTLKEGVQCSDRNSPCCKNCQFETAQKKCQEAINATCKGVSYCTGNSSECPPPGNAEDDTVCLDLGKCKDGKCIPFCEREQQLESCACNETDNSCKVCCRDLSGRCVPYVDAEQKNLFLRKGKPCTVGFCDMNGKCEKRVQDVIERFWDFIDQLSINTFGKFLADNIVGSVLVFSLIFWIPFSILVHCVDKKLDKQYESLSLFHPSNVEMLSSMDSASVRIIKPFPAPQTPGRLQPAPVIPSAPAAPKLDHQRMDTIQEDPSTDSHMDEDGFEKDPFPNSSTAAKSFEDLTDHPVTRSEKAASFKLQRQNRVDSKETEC

For the compound `O=c1oc2ccccc2cc1-c1nc2c(s1)CCCC2`, the IC50 in the assay “cells [1]” is > 67.5 µM (inactive); in [2], > 0.278 µM (active).
`C[C@H](CO)N1C[C@H](C)[C@@H](CN(C)S(=O)(=O)c2ccc(Cl)cc2)OCCCC[C@H](C)Oc2ccc(NS(=O)(=O)c3ccccc3)cc2C1=O`: the AC50 in assay [3] is 27.6 µM (active); in assay [4], 14 µM (active); in assay [5], 26.3 µM (active); in assay [6], 23.7 µM (active); at Paired box protein Pax-8, 6.52 µM (active).
In the case of `CCOc1ccc2nc(O)c(CN(Cc3nnnn3Cc3ccco3)C3CCCCC3)cc2c1`, the CC50 in assay [7] is > 40 µM (active). The IC50 in the assay with H9c2 was 25.5 µM (active).
For the compound `O=C(/C=C/Nc1ccc(F)c(Cl)c1)c1ccco1`, the IC50 at Protein skinhead-1 is 25.2 µM (active). Moreover, the EC50 (in the assay “cells [8]”; in [9]) was > 67.5 µM (inactive) throughout.
With `CCOC(=O)c1cc2c(=O)n3cccc(C)c3nc2n(CC(C)C)/c1=N/C(=O)c1ccco1`, the AC50 was > 52 µM (inactive) in assay [10] and 14 µM (active) at CAAX prenyl protease 2.
Regarding `Cc1cc(C(=O)CSc2nnc(-c3ccccc3)n2Cc2ccc3c(c2)OCO3)c(C)n1C`, the IC50 at Protein Tat was > 100 µM (active).
For the compound `COc1ccc(S(=O)(=O)Nc2ccc(Nc3ccccc3)cc2)cc1`, the IC50 in [11] is > 69.5 µM (inactive); in assay [12], 12 µM (inactive).
Take `COc1ccc(Nc2ncc(F)c(N3CCOCC3)n2)cc1`: the AC50 in assay [13] is 18 µM (active); in [14], > 52 µM (inactive); in assay [15], 10.2 µM (active); in assay [16], > 52 µM (inactive). Also, the CC50 in assay [7] is > 40 µM (active).
